Test results from ChEMBL document CHEMBL5338708, “Bis-chalcone polyphenols with potential preventive and therapeutic effects on PD: Design, synthesis and in vitro disaggregation activity against α-synuclein oligomers and fibrils” (Eur J Med Chem, 2022).

How the values were obtained:
[1] = Apparent permeability across apical to basolateral side in MDCKII-MDR1 cells at 10 uM by LC-MS/MS analysis; assay type: ADME, cell-based, Canis lupus familiaris; conditions: dog, MDCK-MDR1
[2] = Apparent permeability across basolateral to apical side in MDCKII-MDR1 cells at 10 uM by LC-MS/MS analysis; assay type: ADME, cell-based, Canis lupus familiaris; conditions: dog, MDCK-MDR1
[3] = molecular target: Alpha-synuclein (Homo sapiens, UniProt P37840); experiment: Inhibition of recombinant human Alpha-synuclein aggregation expressed in Escherichia coli incubated for 72 hrs by ThT fluorescence assay
[4] = Efflux ratio of apparent permeability from basolateral to apical side over apical to basolateral side in […] cells at 10 uM by LC-MS/MS analysis; assay type: ADME, cell-based, Canis lupus familiaris; conditions: dog, MDCK-MDR1

SMILES | Papp A→B at 10 µM [1] [×10⁻⁶ cm/s] | Papp B→A at 10 µM [2] [×10⁻⁶ cm/s] | efflux ratio at 10 µM [4] | IC50 [3] [nM]
COc1cc(/C=C/C(=O)c2cc(O)cc(O)c2)c(OC)cc1/C=C/C(=O)c1cc(O)cc(O)c1 | 7.71 | 93.2 | – | –
COc1cc(/C=C/C(=O)c2ccc(O)c(O)c2)c(OC)cc1/C=C/C(=O)c1ccc(O)c(O)c1 | 13.5 | 96 | – | –
O=C(O[C@@H]1Cc2c(O)cc(O)cc2O[C@H]1c1cc(O)c(O)c(O)c1)c1cc(O)c(O)c(O)c1 [GALLOCATECHIN GALLATE] | – | – | – | 1060
CC(C)NCC(O)COc1cccc2ccccc12 (configuration not stated) [PROPRANOLOL] | 36.5 | 97 | 2.66 | –

Further lines, with some results ahead:

Papp A→B at 10 µM [1] [×10⁻⁶ cm/s] | Papp B→A at 10 µM [2] [×10⁻⁶ cm/s] | efflux ratio at 10 µM [4] | SMILES | IC50 [3] [nM]
16.2 | 74.7 | – | O=C(/C=C/c1ccc(/C=C/C(=O)c2ccc(O)c(O)c2)cc1)c1ccc(O)c(O)c1 | –
11.4 | 95.6 | – | O=C(/C=C/c1ccc(/C=C/C(=O)c2ccc(O)c(F)c2)cc1)c1ccc(O)c(F)c1 | –
